# According to US20240050526A1, “CATH2 DERIVATIVES FOR STIMULATING INNATE IMMUNE MEMORY” (priority 2020, published 2024):
# Square brackets hold non-standard residues; d marks the D form. Ends that are not written are not given here.
# Test system: dTHP-1 cells
# Test: RNA sequencing of DCATH-2 trained dTHP-1 cells
# Format: cell-based, human
# Description: dTHP-1 cells (1×10^6/well) were primed for 24 h with DCATH-2 in 6 well plates containing 1 ml medium, using culture medium as control. After priming, cells were washed 3 times and left to rest for 3 days in culture medium. Cells were stimulated for 6 h with 50 ng/ml E. coli O111:B4 LPS or fresh medium. Supernatants were stored for cytokine analysis. Cells were harvested by rinsing once with ice-cold DPBS and lysing cells in 100 μl RLT buffer (Qiagen) containing 1% 2-mercaptoethanol. After scraping, per condition the contents of two wells were transferred into vials, flash frozen in liquid nitrogen and stored at −80° C. for analysis. Total RNA was extracted in RLT buffer (RNeasy kit, Qiagen) supplemented with 2-mercaptoethanol and purified using a Qiagen QiaSymphony SP system. RNA libraries were prepared using the Truseq stranded total RNA (ribo-zero) library prep kit (Illumina) according the manufacturer's recommendations. RNA-sequencing was done with a NextSeq 500 system 1×75 bp high-output kit. Single-end RNASeq reads were processed using the UMCU RNASeq pipeline (v2.3.0) with default settings. Read quality was assessed with FastQC (0.11.4) followed by splice-aware alignment against the human reference genome (GRCh37) with STAR (2.4.2a). RNA expression quantification was performed with htseq-count (0.6.0) in reverse-stranded mode. Differential gene expression analysis was carried out with the DESeq2 package in DEBrowser (https://debrowser.umassmed.edu/). In each comparsion, genes were selected with an absolute fold-change >1.5 and alpha P<0.05. Pathway enrichment analysis was performed in g:Profiler (https://biit.cs.ut.ee/gprofiler/) using separate FDR ranked differentially expressed gene lists for up and down regulated genes with a Benjamini-Hochberg FDR correction for multiple testing and a FDR<0.05 threshold. Enriched pathways of GO Biologic Processes were visualized in Cytoscape (http://www.cytoscape.org/) using EnrichmentMap (http://www.baderlab.org/Software/EnrichmentMap) and a FDR cutoff of 0.01. Similarity statistic threshold was set at Jaccard>0.25 and filtered for gene set sizes between 5 and 500 genes.
# [1] = DCATH-2 training, during LPS stimulation
# [2] = RNAseq experiment, 24 h priming, 3 days rest, 6 h E. coli LPS stimulation
# [3] = trained LPS-stimulated cells vs LPS-stimulated control cells
# [4] = trained and rested cells vs unstimulated control cells
substance,measurement,setting,value
"rfgrflrkirrfrpkvtitiqgsarf-NH2 ([dR][dF]G[dR][dF][dL][dR][dK][dI][dR][dR][dF][dR][dP][dK][dV][dT][dI][dT][dI][dQ]G[dS][dA][dR][dF]-NH2; N-terminus assumed; SMILES CC[C@@H](C)[C@@H](NC(=O)[C@@H](CCCCN)NC(=O)[C@@H](CCCNC(=N)N)NC(=O)[C@@H](CC(C)C)NC(=O)[C@@H](Cc1ccccc1)NC(=O)[C@@H](CCCNC(=N)N)NC(=O)CNC(=O)[C@@H](Cc1ccccc1)NC(=O)[C@H](N)CCCNC(=N)N)C(=O)N[C@H](CCCNC(=N)N)C(=O)N[C@H](CCCNC(=N)N)C(=O)N[C@H](Cc1ccccc1)C(=O)N[C@H](CCCNC(=N)N)C(=O)N1CCC[C@@H]1C(=O)N[C@H](CCCCN)C(=O)N[C@@H](C(=O)N[C@@H](C(=O)N[C@@H](C(=O)N[C@@H](C(=O)N[C@@H](C(=O)N[C@H](CCC(N)=O)C(=O)NCC(=O)N[C@H](CO)C(=O)N[C@H](C)C(=O)N[C@H](CCCNC(=N)N)C(=O)N[C@H](Cc1ccccc1)C(N)=O)[C@H](C)CC)[C@H](C)O)[C@H](C)CC)[C@H](C)O)C(C)C) [DCATH-2, full D-amino acid analog of CATH-2]","Log 2 fold change, gene AHNAK2",[1],1.12
same,"Log 2 fold change, gene CCL18",[1],2.81
same,"Log 2 fold change, gene CCRL2",[1],1.04
same,"Log 2 fold change, gene CD22",[1],1.18
same,"Log 2 fold change, gene CSF2",[1],1.81
same,"Log 2 fold change, gene CXCL3",[1],1.18
same,"Log 2 fold change, gene FAM213B",[1],1.02
same,"Log 2 fold change, gene FOXF1",[1],1.21
same,"Log 2 fold change, gene HSPBAP1",[1],1.06
same,"Log 2 fold change, gene IL1A",[1],1.15
same,"Log 2 fold change, gene IL6",[1],2.17
same,"Log 2 fold change, gene KLF2",[1],2.54
same,"Log 2 fold change, gene LIF",[1],2.73
same,"Log 2 fold change, gene MFSD2A",[1],1.04
same,"Log 2 fold change, gene MYLK",[1],1.17
same,"Log 2 fold change, gene PTGS2",[1],1.29
same,"Log 2 fold change, gene SEPT3",[1],1.06
same,"Log 2 fold change, gene TIE1",[1],1.46
same,"Log 2 fold change, gene TNFSF15",[1],1.19
same,"Log 2 fold change, gene TRIM47",[1],2.45
same,"Log 2 fold change, gene TRPM8",[1],1.36
same,"Log 2 fold change, gene ZNF358",[1],1.04
same,amplification of IL-6 production,[2],3.3 fold
same,amplification of TNFα production,[2],2.5 fold
same,downregulated DEGs,[3],54
same,upregulated DEGs,[3],71
same,downregulated DEGs,[4],126
same,upregulated DEGs,[4],156
